Test results: patent publication US6613798B1, “Small organic molecule regulators of cell proliferation” (Curis, Inc., priority 2000, dated 2003)
“Also recorded” adds a separate entry of the source.

Tests used:
Gli-1 = assay: Quantitative RT-PCR (TaqMan) measurement of Gli-1 transcript in C3H 10T1/2 cells; assay type: cell-based, Murine; details: compound concentration of 8 μM
Description: (§1) The compounds of FIGS. 32 and 33 were tested for their ability to activate transcription of two well-studied targets of the Hedgehog pathway: the transcription factor Gli-1, and the putative Hedgehog receptor component Ptc-1.
(§2) Murine C3H 10T1/2 cells were seeded at approximately 200,000 cells per well in a 24-well plate in complete medium (10% FBS). After 24 hr, medium was removed and replaced with “starvation” medium (0.5% FBS) containing dilutions of compound or Hh protein. After 16-18 hr, total RNA was prepared using TriZol (Life Technologies, inc.).
(§3) One microgram aliquots of total RNA were used to prepare random hexamer-primed cDNA with […] Reverse transcriptase (Life Technologies, Inc.).
(§4) To measure the relative levels of Gli-1 and Ptc-1 transcripts, TaqMan assays (PE Biosystems) were performed with an ABI Prism 7700 Sequence Detection System. As an internal control, GAPDH transcript levels were simultaneously measured in each reaction. Data were analyzed using Sequence Detector v1.6.3 (Perkin Elmer).

Ptc-1 = assay: Quantitative RT-PCR (TaqMan) measurement of Ptc-1 transcript in C3H 10T1/2 cells; assay type: cell-based, Murine; details: compound concentration of 8 μM
Description: as §1, §2, §3, §4

[1] = system: cerebellar neuron precursors; assay: Cerebellar neuron precursor proliferation (3H-thymidine incorporation); assay type: cell-based, rat; details: in the absence of Hh protein treatment
Description: In order to test the efficacy of Hedgehog signaling agonists, the ability of the agonists to stimulate the proliferation of cerebellar neuron precursors was determined. Cerebellar granule neuron precursors are known to respond to Hh protein by proliferating. To test the agonists, cerebellar neurons were dissected out of postnatal (one week) rat brains, and placed into primary cell culture. Treatment agents were added once, on the first day of culture (0 DIV). Cells were left in culture until 2 DIV, when 3H-thymidine was added for 5 hours; the amount of incorporation by the cells of this 3H-thymidine provides a measure of the level of proliferation of the cells. Cells were then lysed, and the incorporation of 3H-thymidine was determined. The positive control was Hh protein, at 1.0 μg/ml final concentration. Hh protein alone caused approximately a 20-fold increase in 3H-thymidine incorporation, consistent with the known ability of Shh to stimulate proliferation of these cells. Non-Hh-protein-stimulated cells, including cells treated with control vehicle (DMSO), had very low levels of proliferation. […] At 5.0 μM, the p-cyanophenyl compound B caused 10.2-fold induction of 3H-thymidine incorporation. […] At 1.0, 0.3, or 0.1 μM, D caused 16-, 17-, or 13-fold induction, respectively, of 3H thymidine incorporation into the cells.

[2] = system: patched (ptc-lacZ β-galactosidase reporter); assay: Reporter mice assay (ptc-lacZ mice, X-gal staining of tissues); assay type: in vivo, mouse
Description: Mice with a β-galactosidase transgene (ptc-lacZ mice) under the regulatory control of the patched locus expresss the β-galactosidase protein in the same cells where the endogenous mouse patched gene is expressed. The β-galactosidase protein can thus be used as a faithful reporter of the expression of the endogenous patched gene.
Ptc-lacZ mice were divided into four treatment groups and were treated with the following compounds or combinations of compounds for four days, beginning on the first day after birth (dipal-Shh=dipalmitoylated Sonic hedgehog):
The vehicle for the agonist was 10% DMSO in PBS (pH 7.2). The agonist was injected from a 4.67 mM stock dissolved in the vehicle solution.
18 hours following the last injections, the mice were sacrificed and the following tissues were collected: skull, kidney, lung, scapula, skin and heart. All tissues were fixed in 0.2% glutaraldehyde, 5 mM EDTA (pH 8.0), 20 mM MgCl2, 100 mM Na2HPO4 for 30 minutes before staining in 1 mg/ml X-gal, 12.5 mM potassium ferrocyanide, 12.5 mM potassium ferricyanide, 2 mM MgCl2, 0.01% deoxycholate, 0.02% NP-40, and 100 mM Na2HPO4 for 30 hours. Tissues were judged for relative intensity and photographed.
FIG. 42: Ptc-lacZ mice were divided into two treatment groups and were treated with the following compounds for three days, beginning on the first day after birth:
The vehicle for the agonist was 10% DMSO in PBS (pH 7.2). The agonist was injected from a 1.0 mM stock dissolved in the vehicle solution.
Eighteen hours following the last injections, the mice were sacrificed and the forelimbs were collected and processed as described above.
In a third experiment, Ptc-lacZ mice were divided into five treatment groups and were treated with the following compounds for four days, beginning on the first day after birth:
The vehicle for the agonist was 10% DMSO in PBS (pH 7.2). The agonist was injected from stocks of 0.3, 0.1 and 0.03 mM dissolved in the vehicle solution.
Eighteen hours following the last injections, the mice were sacrificed and the forelimbs were collected and processed as described above. Results of this experiment are depicted in FIG. 43, in which the vehicle control is not shown.

ptc-1 (d11) lacZ lungs = assay: Lung branching assay (ptc-1 lacZ lung explants); assay type: cell-based, mouse; details: 5 μM, 48 hrs culture
Description: (§5) E 12.5 old ptc-1 (d11) lacZ lungs were harvested and transgenic embryos identified by lacZ detection using tails. Explants were assembled on 1 μm polycarbonate filters (Costar) placed on top of plastic grids (histology embedding chamber) and placed in standard 12-well tissue culture plates filled with lung explant culture medium (DMEM based, additives optimized for the culture of mouse lungs) for 48 hrs, fixed in lacZ fixative, rinsed and stained for lacZ O/N at 37° C.
Results are depicted in FIG. 44. In the control panel on the left, LacZ expression can be observed in the mesenchyme immediately adjacent to distal branching tips, a pattern reflective of endogenous patched expression.

[3] = system: ptc-1 (d11) lacZ kidney explants; assay: Kidney branching assay (ptc-1 lacZ kidney explants); assay type: cell-based, mouse; details: 5 μM, 48 hrs culture
Description: as §5, with “E13.5 old” for “E 12.5 old”, “with kidney” for “with lung”
Results are depicted in FIG. 45. In the control panel on the left, LacZ expression can be observed in the mesenchyme immediately adjacent to proximalmost ureteric epitheilium, a pattern reflective of endogenous patched expression.

ptc-lacZ skin punches = assay: Skin explants from ptc-lacZ pups (X-Gal stain); assay type: cell-based, mouse; details: agonist and a low dose of Hh protein, cultured 6 days
Description: Skin from ptc-lacZ E17.5 pups was excised with a 2 mm skin punch. Those skin punches were then cultured for 6 days in control media, or media including either agonist B or D or Hh protein, or media including both an agonist and Hh protein. The explants were then stained with X-Gal stain.

[4] = system: human embryonic palatal mesenchyme (HEPM) cells with a Gli-Luc construct; assay: Gli-Luc reporter assay in human reporter cells; assay type: cell-based
Excerpt: FIGS. 47A and B compare the activity of subject compounds O and R in mouse reporter cells (TM3 cells with a Gli-Luc reporter construct, as described above) and in human reporter cells (human embryonic palatal mesenchyme (HEPM) cells with a Gli-Luc construct).

## COc1ccc(CN(C(=O)c2sc3ccccc3c2Cl)C2CCC(N)CC2)cc1-c1cccc([N+](=O)[O-])c1 (centres unmarked) [A]
Gli-1
  induction of Gli-1 relative to that obtained with the optimal concentration of Hh protein: ~40%
Ptc-1
  induction of Ptc-1 relative to that obtained with the optimal concentration of Hh protein: ~40%
[1]
  stimulation of 3H-thymidine incorporation: significantly stimulate 3H-thymidine incorporation

## COc1ccc(CN(C(=O)c2sc3ccccc3c2Cl)C2CCC(N)CC2)cc1-c1ccc(C#N)cc1 (centres unmarked) [B]
Gli-1
  induction of Gli-1 relative to that obtained with the optimal concentration of Hh protein: approximately 60%
Ptc-1
  induction of Ptc-1 relative to that obtained with the optimal concentration of Hh protein: approximately 60%
[1]
  stimulation of 3H-thymidine incorporation: significantly stimulate 3H-thymidine incorporation
[2]; 15 mg/kg/injection 4X/day plus dipal-Shh 1 mg/kg/injection 2X/day, four days from first day after birth, skull, kidney, lung, scapula, skin, heart
  upregulation of β-galactosidase (hedgehog pathway) in tissues: clearly capable of upregulating the hedgehog pathway in vivo
ptc-1 (d11) lacZ lungs
  LacZ reporter gene expression in lung explants: significantly increased reporter gene expression and expansion of the expression domain of the transgene
[3]
  LacZ reporter gene expression in kidney explants: significantly increased reporter gene expression and expansion of the expression domain of the transgene

## CNC1CCC(N(Cc2ccc(OC)c(-c3ccc(C#N)cc3)c2)C(=O)c2sc3ccccc3c2Cl)CC1 (centres unmarked) [D]
[1]
  stimulation of 3H-thymidine incorporation: strongly stimulated 3H-thymidine incorporation
[2]; 0.1 mg/kg/injection 4X/day, four days
  upregulation of hedgehog pathway (β-galactosidase) in forelimbs: very weak upregulation
[2]; 0.3 mg/kg/injection 4X/day, four days
  upregulation of hedgehog pathway (β-galactosidase) in forelimbs: greater than that seen with injections of Hh protein
[2]; 0.9 mg/kg/injection 4X/day, four days, listed as agonist D
  upregulation of hedgehog pathway (β-galactosidase) in forelimbs: highest levels of upregulation; also recorded: greater than that seen with injections of Hh protein
[2]; 4 mg/kg/injection 4X/day, three days, absence of dipal-Shh, listed as Agonist D
  upregulation of hedgehog pathway (β-galactosidase) in forelimbs: clearly capable of upregulating the hedgehog pathway in vivo
[2]; 4 mg/kg/injection 4X/day, three days, absence of dipal-Shh, listed as agonist D
  upregulation of hedgehog pathway (β-galactosidase) in forelimbs: greater than that seen with injections of dipal-Shh
ptc-lacZ skin punches
  X-Gal staining of skin explants: Analogous results

## CNC1CCC(N(Cc2ccc(-c3cccnc3)o2)C(=O)c2sc3ccccc3c2Cl)CC1 (centres unmarked) [R]
[4]
  activation of Gli-Luc reporter in human cells: activation of the reporter cell line
